# Values quoted from earlier work as cited in patent publication US9260760B2, “Method for determining complete response to anticancer therapy” (Board of Regents, The University of Texas System, priority 2012, dated 2016).
# Read-outs that look alike come from different tables or passages of the source.
# Legend:
# [1] = cited from earlier work
# [2] = system: metastatic colorectal cancer; settings: cited from earlier work
smiles,measurement,setting,value
"CCCCCOC(=O)Nc1nc(=O)n([C@@H]2O[C@H](C)[C@@H](O)[C@H]2O)cc1F [Capecitabine, capecitabine]",grade 3 HFS,[1]; capecitabine at 1250 mg/m2/d,≤ 17%
same,patients with HFS onset within six weeks,[1]; capecitabine at 1250 mg/m2/d,93%
same,patients with most severe HFS episode within six weeks,[1]; capecitabine at 1250 mg/m2/d,67.9%
same,HFS,"[1]; capecitabine starting at 750-1000 mg/m2/d bid with irinotecan (Patt et al., 2004)",35%
same,incidence of grade ⅔ HFS,"[1]; earlier study, capecitabine 1000 mg/m2/d bid (Lin et al., 2002)",34.2%
same,Complete response (%),[2]; first-line therapy,3%
same,Median OS (months),[2]; first-line therapy,12.4-13.2 months
same,Median PFS (months),[2]; first-line therapy,4.2 months
same,Response rate (%),[2]; first-line therapy,19-25%
same,Stable disease (%),[2]; first-line therapy,50%
same,time at which half of the patients experienced tumor progression,[2]; monotherapy capecitabine,2-4 months
same,Complete response (%),[2]; second-line therapy,0%
same,Median OS (months),[2]; second-line therapy,12.2 months
same,Median PFS (months),[2]; second-line therapy,2.1 months
same,Response rate (%),[2]; second-line therapy,0%
same,Stable disease (%),[2]; second-line therapy,50%
